According to ChEMBL document CHEMBL6177941, “Recent advances from computer-aided drug design to artificial intelligence drug design” (RSC Med Chem, 2024):
In brackets after ≈: the same amount, converted by molar mass.

Experiments:
Speckle-type POZ protein = Speckle-type POZ protein (Homo sapiens, UniProt O43791)
Androgen receptor = molecular target: T1, Androgen receptor (Homo sapiens, UniProt P10275); test: Inhibition of full length human Androgen receptor DNA binding domain dimerization
T1 sequence (P10275 whole entry): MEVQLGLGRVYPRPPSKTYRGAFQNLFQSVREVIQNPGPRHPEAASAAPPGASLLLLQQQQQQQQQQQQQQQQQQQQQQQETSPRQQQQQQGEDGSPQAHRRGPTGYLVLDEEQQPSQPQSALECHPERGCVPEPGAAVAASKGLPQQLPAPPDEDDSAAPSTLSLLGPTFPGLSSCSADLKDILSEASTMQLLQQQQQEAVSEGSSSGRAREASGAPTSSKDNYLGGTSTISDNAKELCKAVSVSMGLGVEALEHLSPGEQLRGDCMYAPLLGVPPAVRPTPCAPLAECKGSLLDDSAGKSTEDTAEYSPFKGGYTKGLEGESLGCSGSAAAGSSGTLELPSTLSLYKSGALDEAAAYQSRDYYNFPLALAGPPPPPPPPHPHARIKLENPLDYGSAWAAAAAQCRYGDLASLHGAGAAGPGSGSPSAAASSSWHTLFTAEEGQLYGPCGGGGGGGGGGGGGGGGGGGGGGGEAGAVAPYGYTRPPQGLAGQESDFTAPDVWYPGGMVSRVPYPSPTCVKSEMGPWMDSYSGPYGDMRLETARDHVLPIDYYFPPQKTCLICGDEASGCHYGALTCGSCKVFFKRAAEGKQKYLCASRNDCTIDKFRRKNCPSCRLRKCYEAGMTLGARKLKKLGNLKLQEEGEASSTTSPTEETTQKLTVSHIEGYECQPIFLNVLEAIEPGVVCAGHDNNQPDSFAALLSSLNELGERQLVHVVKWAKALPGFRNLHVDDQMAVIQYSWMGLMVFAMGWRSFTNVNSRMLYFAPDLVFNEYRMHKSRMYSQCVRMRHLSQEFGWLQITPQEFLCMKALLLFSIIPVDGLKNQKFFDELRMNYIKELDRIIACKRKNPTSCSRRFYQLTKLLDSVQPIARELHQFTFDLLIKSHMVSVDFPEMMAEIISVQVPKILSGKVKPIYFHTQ

[1] = molecular target: Myeloid differentiation primary response protein MyD88 (Homo sapiens, UniProt Q99836); test: Binding affinity to MYD88 Toll/interleukin-1 receptor domain (unknown origin) assessed as dissociation constant by SPR assay
Acinetobacter baumannii = test: microbe, parasite or virus in culture; details: ATCC 17978
Description: Antibacterial activity against Acinetobacter baumannii ATCC 17978

[2] = molecular target: T2, Serine/threonine-protein kinase Sgk3 (Homo sapiens, UniProt Q96BR1); test: Inhibition of SGK3 (unknown origin)
T2 sequence (Q96BR1 whole entry): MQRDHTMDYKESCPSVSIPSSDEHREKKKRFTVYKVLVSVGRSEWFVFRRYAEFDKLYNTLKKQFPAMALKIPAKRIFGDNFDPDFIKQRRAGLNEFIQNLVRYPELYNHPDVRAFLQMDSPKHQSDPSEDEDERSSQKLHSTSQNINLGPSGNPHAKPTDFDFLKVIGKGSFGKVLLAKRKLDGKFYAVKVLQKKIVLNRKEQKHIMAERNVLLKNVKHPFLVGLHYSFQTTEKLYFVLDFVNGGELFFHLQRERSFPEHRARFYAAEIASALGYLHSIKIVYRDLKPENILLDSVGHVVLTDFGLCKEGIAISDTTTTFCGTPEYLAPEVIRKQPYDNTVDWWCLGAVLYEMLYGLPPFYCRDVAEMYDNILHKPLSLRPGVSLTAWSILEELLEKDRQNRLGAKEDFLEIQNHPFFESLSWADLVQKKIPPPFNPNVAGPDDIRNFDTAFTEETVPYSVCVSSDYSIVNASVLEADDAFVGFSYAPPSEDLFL

Staphylococcus aureus [3] = test: microbe, parasite or virus in culture; details: ATCC 43300, 24 h
Description: Antibacterial activity against methicillin-resistant Staphylococcus aureus ATCC 43300 assessed as reduction in bacterial growth incubated for 24 hrs by CLSI protocol based broth micro-dilution method

Staphylococcus aureus [4] = test: microbe, parasite or virus in culture; details: ATCC 35556, 24 h
Description: Antibacterial activity against wild type Staphylococcus aureus ATCC 35556 assessed as reduction in bacterial growth incubated for 24 hrs by CLSI protocol based broth micro-dilution method

[5] = Inhibition of Poly-L-Histidine tagged full length recombinant Trypanosoma cruzi Sir2p extracted from Escherichia coli BL21 (DE) using Abz-Gly-Pro-AcetylLys-Ser-Gln-EDDnp peptide as substrate incubated for 30 mins by fluorescence based analysis
VCaP = test: Antiproliferative activity against human VCaP cells expressing ERG level assessed as reduction in cell viability incubated for 72 hrs by CCK8 assay
Escherichia coli = test: Antibacterial activity against Escherichia coli
MOLT-4 = test: Antiproliferative activity against human MOLT-4 cells assessed as reduction in cell growth incubated for 72 hrs by Cell-titer glo luminescent cell viability assay; details: MOLT-4, 72 h
[6] = molecular target: Tyrosine-protein kinase JAK2 (Homo sapiens, UniProt O60674); test: Inhibition of JAK2 (unknown origin) by Z'-LYTE kinase assay
[7] = molecular target: Rho-associated protein kinase 1 (Homo sapiens, UniProt Q13464)
Description: Binding affinity to N-terminal GST-tagged human ROCK1 catalytic domain (1 to 477 residues) expressed in Sf21 insect cells assessed as inhibition constant by NanoBRET intracellular kinase assay

[8] = molecular target: Epithelial discoidin domain-containing receptor 1 (Homo sapiens, UniProt Q08345)
[9] = molecular target: 5-hydroxytryptamine receptor 2A (Homo sapiens, UniProt P28223); test: Agonist activity at human 5-HT2A receptor expressed in HEK293 cells incubated for 60 mins by BRET assay
Cannabinoid receptor 2 = Cannabinoid receptor 2 (Homo sapiens, UniProt P34972); test: Binding affinity to human CB2 receptor assessed as inhibition constant
Cannabinoid receptor 2, sequence (P34972 whole entry): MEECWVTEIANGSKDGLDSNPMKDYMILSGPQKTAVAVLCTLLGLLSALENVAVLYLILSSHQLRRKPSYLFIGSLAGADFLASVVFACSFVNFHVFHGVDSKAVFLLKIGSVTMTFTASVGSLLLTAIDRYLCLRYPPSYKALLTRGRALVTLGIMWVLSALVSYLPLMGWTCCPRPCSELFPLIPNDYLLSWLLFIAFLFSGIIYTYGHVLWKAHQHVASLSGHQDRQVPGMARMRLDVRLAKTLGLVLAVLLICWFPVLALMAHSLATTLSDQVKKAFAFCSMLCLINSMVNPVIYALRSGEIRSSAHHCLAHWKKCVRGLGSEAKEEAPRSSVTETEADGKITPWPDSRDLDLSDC

Tyrosine-protein kinase JAK2, sequence (O60674 whole entry): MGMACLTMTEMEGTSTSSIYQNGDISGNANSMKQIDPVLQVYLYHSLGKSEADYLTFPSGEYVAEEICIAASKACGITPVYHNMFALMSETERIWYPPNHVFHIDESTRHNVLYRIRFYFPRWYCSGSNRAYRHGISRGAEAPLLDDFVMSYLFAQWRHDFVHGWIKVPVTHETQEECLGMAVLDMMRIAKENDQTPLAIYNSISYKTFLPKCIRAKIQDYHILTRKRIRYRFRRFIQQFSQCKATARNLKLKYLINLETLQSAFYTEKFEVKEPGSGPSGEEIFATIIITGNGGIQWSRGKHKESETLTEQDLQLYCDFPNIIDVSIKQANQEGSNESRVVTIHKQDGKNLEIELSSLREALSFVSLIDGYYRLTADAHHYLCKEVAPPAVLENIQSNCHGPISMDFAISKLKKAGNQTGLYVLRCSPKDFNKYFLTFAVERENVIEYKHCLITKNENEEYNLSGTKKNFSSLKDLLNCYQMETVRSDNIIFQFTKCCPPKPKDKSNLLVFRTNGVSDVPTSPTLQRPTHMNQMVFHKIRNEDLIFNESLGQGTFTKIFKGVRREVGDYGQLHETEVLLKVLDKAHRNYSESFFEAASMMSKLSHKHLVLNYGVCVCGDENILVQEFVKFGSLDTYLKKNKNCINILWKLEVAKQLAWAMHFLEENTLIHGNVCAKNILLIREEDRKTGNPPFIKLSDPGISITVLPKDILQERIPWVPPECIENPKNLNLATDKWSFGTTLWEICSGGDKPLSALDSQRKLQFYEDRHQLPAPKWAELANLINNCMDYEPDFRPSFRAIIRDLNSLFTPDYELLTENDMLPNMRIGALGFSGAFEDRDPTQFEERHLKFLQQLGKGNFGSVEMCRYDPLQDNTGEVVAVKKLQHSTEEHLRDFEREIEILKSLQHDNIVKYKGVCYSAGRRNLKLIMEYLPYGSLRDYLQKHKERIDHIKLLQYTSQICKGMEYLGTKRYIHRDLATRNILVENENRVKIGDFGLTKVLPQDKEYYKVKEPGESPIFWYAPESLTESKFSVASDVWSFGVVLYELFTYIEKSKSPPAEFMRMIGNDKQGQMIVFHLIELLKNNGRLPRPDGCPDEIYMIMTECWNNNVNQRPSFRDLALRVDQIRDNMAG
Epithelial discoidin domain-containing receptor 1, sequence (Q08345 whole entry, the tested form may be a part): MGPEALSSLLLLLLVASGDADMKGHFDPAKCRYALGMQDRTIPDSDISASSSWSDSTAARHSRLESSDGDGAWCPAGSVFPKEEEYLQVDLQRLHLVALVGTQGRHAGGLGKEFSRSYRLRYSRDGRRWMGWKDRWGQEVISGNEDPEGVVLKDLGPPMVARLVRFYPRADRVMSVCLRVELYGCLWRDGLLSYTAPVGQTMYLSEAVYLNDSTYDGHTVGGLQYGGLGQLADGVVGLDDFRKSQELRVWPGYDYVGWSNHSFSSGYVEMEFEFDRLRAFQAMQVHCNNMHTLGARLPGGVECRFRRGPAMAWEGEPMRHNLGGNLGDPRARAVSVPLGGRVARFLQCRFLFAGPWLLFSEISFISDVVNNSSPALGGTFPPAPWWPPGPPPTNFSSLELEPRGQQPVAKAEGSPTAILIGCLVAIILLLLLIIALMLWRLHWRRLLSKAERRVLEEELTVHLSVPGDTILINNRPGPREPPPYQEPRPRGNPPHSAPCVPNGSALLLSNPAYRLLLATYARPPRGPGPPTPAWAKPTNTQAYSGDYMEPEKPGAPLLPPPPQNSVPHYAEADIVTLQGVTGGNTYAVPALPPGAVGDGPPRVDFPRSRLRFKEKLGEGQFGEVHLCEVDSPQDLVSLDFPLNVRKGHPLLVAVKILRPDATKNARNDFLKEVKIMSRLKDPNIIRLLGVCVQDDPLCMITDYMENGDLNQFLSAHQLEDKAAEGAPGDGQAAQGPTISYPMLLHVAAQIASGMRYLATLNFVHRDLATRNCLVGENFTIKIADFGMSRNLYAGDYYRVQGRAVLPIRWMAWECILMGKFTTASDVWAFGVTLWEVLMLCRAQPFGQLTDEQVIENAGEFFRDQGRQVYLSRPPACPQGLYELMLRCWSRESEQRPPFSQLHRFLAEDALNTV
Speckle-type POZ protein, sequence (O43791 whole entry, the tested form may be a part): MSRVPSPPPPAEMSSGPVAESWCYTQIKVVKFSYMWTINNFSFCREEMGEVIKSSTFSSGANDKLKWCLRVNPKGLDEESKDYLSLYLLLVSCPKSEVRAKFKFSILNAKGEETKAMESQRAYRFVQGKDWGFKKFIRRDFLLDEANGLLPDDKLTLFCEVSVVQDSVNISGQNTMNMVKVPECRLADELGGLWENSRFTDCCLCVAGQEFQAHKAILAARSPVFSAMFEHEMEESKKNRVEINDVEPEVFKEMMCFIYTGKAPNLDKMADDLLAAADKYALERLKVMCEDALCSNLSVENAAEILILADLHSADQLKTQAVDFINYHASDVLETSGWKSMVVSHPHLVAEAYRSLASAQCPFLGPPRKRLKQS
Rho-associated protein kinase 1, sequence (Q13464 whole entry, the tested form may be a part): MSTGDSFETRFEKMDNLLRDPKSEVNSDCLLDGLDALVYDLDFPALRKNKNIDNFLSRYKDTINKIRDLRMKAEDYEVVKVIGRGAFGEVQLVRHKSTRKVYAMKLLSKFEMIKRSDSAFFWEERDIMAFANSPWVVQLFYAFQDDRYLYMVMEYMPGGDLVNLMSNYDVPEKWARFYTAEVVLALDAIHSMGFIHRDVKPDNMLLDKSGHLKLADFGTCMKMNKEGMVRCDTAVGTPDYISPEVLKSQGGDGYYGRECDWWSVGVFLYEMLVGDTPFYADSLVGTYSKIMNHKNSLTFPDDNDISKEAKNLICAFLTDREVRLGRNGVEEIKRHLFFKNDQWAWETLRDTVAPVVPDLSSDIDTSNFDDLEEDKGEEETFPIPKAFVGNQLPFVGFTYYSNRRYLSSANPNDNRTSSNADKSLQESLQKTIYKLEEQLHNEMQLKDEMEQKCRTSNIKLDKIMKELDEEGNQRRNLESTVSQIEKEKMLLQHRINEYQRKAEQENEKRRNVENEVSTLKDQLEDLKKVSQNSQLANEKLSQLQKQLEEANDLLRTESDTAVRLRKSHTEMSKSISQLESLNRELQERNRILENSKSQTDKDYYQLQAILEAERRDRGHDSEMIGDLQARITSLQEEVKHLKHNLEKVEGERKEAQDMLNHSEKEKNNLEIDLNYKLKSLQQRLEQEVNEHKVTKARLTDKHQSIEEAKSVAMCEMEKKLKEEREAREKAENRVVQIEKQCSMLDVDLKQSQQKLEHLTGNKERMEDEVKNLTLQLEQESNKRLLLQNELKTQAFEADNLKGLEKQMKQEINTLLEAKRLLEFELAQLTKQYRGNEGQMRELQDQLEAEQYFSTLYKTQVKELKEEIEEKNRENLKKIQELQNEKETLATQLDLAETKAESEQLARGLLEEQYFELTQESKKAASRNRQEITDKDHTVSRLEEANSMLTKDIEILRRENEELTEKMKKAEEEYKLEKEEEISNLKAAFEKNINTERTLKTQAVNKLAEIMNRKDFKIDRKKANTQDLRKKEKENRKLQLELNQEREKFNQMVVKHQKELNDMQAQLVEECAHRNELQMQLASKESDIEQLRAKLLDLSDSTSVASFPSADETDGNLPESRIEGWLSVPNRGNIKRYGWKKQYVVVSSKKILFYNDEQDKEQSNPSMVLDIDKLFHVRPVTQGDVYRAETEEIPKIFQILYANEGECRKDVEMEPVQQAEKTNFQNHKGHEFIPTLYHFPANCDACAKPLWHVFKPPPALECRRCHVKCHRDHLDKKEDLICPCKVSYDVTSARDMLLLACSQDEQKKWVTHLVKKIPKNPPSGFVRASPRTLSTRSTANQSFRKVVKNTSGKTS
Myeloid differentiation primary response protein MyD88, sequence (Q99836 whole entry, the tested form may be a part): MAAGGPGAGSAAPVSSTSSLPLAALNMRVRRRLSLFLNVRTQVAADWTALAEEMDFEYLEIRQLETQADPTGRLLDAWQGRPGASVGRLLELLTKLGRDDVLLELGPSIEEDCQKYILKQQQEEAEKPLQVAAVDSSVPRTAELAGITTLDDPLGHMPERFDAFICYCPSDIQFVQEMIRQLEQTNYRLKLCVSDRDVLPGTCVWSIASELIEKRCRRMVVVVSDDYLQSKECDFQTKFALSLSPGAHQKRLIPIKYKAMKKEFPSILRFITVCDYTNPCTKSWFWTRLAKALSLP
5-hydroxytryptamine receptor 2A, sequence (P28223 whole entry): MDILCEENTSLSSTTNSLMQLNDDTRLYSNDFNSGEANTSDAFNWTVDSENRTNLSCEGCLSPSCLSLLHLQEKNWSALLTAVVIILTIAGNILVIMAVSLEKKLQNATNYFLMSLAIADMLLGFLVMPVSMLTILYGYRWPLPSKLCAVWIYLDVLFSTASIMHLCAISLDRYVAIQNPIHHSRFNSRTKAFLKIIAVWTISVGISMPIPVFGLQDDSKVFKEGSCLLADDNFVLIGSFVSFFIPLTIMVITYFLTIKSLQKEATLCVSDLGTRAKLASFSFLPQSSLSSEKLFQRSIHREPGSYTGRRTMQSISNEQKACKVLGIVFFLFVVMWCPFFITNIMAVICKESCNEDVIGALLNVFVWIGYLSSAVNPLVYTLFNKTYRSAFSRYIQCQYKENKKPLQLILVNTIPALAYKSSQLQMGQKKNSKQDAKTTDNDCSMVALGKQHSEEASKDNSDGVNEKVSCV

Q: Which IC50 (Speckle-type POZ protein) does the source give for `Cc1nnc(SCC2=C(C(=O)O)N3C(=O)[C@@H](NC(=O)c4ccc(COc5ccccc5Cl)o4)[C@H]3SC2)s1` here?
A: Its IC50 is 4510 nM.

Q: For `CC(O)(CNC(=O)/C=C/c1ccnc2ccccc12)c1ccsc1` (configuration not stated), which IC50 (Androgen receptor) is on record?
A: Its IC50 is 5000 nM.

Q: For `O=C(CN1CCC(CCc2ccccc2)CC1)Nc1n[nH]c2ncccc12`, which Kd [1] is on record?
A: The Kd was 165000 nM.

Q: Which IC50 (Androgen receptor) does the source give for `O=C(NCc1cccc2ccccc12)NCC(O)(c1cccs1)c1cccs1` here?
A: Its IC50 is 2000 nM.

Q: Which MIC (Acinetobacter baumannii) does the source give for `O=C1Nc2ccccc2C2(CCN(CCc3ccc(C(F)(F)F)cc3)CC2)O1` here?
A: The MIC was 2 µg/mL (≈ 5.12 µM).

Q: For `COc1ccc(/C=C/c2[nH]c(=O)[nH]c(=O)c2[N+](=O)[O-])cc1OC`, which IC50 [2] is on record?
A: The IC50 was 179000 nM.

Q: For `CC1(C)[C@H]2Cc3cc(-c4cc5c(cn4)[C@@H]4C[C@H](C5)C4(C)C)ncc3[C@@H]1C2`, which MIC (Staphylococcus aureus [3]) is on record?
A: Its MIC is 8 µg/mL (≈ 23.2 µM).

Q: What about the MIC (Staphylococcus aureus [4]) of the same molecule?
A: Its MIC is 8 µg/mL (≈ 23.2 µM).

Q: For `O=C(NCc1coc(-c2ccccc2)n1)Nc1ccc(-c2noc(C(F)(F)F)n2)cc1`, which IC50 [5] is on record?
A: Its IC50 is 40000 nM.

Q: With `O=C(N/N=C/c1ccc([N+](=O)[O-])o1)c1ccc(O)cc1` [NIFUROXAZIDE] as the molecule, how does the IC50 (VCaP) read?
A: Its IC50 is 2560 nM.

Q: Which MIC (Escherichia coli) does the source give for `Nc1nnc(Sc2ncc([N+](=O)[O-])s2)s1` here?
A: Its MIC is 2 µg/mL (≈ 7.65 µM).

Q: Which IC50 (MOLT-4) does the source give for `COCc1cccc(CC(=O)Nc2ccc(-c3cn[nH]c3)cc2)c1` here?
A: Its IC50 is 116 nM.

Q: And the IC50 [6]?
A: The IC50 was 70 nM.

Q: And the Ki [7]?
A: The Ki was 38 nM.

Q: What about the IC50 [8] of the same molecule?
A: The IC50 was 10 nM.

Q: Which EC50 [9] does the source give for `C[C@@H]1C=C(c2c[nH]c3ncccc23)CN(C)C1` here?
A: Its EC50 is 110 nM.

Q: For `COCC(C)(NC(=O)c1ccc(N2CCCCC2)c(S(=O)(=O)N2CCCCC2)c1)C1CC1` (configuration not stated), which Ki (Cannabinoid receptor 2) is on record?
A: The Ki was 0.9 nM.
